# Data published in ChEMBL document CHEMBL5131476, “Development of dihydropyrrolopyridinone-based PKN2/PRK2 chemical tools to enable drug discovery” (Bioorg Med Chem Lett, 2022).
# Key:
# [1] = molecular target: T1, Serine/threonine-protein kinase N1 (Homo sapiens, UniProt Q16512); assay: Inhibition of PKN1 (unknown origin) by TR-FRET-based tracer displacement assay
# [2] = molecular target: T1, Serine/threonine-protein kinase N1; assay: Inhibition of PKN1 (unknown origin) by TR-FRET-based tracer displacement assay dependent Cheng-Prusoff equation analysis
# [3] = Toxicity in human HeLa cells assessed as cell viability at 50 uM incubated for 24 hrs by MTT assay; assay type: cell-based; details: read-out: Activity
# [4] = molecular target: T2, Serine/threonine-protein kinase N2 (Homo sapiens, UniProt Q16513); assay: Inhibition of PKN2 (unknown origin) by TR-FRET-based tracer displacement assay
# [5] = molecular target: T2, Serine/threonine-protein kinase N2; assay: Inhibition of NanoLuc-PKN2 (ser646-cys984)(unknown origin) expressed in HEK293 cells by cell-based NanoBRET target engagement assay
# [6] = molecular target: T2, Serine/threonine-protein kinase N2; assay: Inhibition of NanoLuc-PKN2 (ser646-cys984)(unknown origin) expressed in HEK293 cells in […] by cell-based NanoBRET target engagement assay
# [7] = molecular target: T2, Serine/threonine-protein kinase N2; assay: Inhibition of PKN2 (unknown origin) by TR-FRET-based tracer displacement assay dependent Cheng-Prusoff equation analysis
# T1 sequence (Q16512 whole entry): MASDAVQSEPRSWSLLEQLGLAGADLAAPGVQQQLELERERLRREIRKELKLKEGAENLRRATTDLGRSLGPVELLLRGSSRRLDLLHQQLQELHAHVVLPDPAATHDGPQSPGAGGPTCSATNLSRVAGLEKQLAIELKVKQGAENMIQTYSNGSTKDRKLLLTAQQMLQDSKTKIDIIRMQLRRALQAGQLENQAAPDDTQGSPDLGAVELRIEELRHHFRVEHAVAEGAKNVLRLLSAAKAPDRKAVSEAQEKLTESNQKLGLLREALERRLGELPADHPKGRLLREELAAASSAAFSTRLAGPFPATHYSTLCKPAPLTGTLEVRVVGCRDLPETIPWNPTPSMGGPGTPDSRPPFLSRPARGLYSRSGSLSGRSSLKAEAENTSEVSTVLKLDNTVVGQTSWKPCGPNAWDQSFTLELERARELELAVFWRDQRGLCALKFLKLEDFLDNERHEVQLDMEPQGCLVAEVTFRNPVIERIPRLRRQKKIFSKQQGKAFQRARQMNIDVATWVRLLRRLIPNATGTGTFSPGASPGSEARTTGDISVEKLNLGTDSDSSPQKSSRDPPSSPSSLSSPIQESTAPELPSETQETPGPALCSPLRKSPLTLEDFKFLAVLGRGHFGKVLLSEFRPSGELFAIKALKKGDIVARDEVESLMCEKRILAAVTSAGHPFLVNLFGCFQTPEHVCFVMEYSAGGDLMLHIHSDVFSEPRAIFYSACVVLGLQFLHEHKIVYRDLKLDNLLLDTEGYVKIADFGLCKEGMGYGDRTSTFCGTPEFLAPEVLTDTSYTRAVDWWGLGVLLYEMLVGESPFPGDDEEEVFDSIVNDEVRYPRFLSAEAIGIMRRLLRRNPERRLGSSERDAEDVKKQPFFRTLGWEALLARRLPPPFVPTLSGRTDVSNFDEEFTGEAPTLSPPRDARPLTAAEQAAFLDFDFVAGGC
# T2 sequence (Q16513 whole entry): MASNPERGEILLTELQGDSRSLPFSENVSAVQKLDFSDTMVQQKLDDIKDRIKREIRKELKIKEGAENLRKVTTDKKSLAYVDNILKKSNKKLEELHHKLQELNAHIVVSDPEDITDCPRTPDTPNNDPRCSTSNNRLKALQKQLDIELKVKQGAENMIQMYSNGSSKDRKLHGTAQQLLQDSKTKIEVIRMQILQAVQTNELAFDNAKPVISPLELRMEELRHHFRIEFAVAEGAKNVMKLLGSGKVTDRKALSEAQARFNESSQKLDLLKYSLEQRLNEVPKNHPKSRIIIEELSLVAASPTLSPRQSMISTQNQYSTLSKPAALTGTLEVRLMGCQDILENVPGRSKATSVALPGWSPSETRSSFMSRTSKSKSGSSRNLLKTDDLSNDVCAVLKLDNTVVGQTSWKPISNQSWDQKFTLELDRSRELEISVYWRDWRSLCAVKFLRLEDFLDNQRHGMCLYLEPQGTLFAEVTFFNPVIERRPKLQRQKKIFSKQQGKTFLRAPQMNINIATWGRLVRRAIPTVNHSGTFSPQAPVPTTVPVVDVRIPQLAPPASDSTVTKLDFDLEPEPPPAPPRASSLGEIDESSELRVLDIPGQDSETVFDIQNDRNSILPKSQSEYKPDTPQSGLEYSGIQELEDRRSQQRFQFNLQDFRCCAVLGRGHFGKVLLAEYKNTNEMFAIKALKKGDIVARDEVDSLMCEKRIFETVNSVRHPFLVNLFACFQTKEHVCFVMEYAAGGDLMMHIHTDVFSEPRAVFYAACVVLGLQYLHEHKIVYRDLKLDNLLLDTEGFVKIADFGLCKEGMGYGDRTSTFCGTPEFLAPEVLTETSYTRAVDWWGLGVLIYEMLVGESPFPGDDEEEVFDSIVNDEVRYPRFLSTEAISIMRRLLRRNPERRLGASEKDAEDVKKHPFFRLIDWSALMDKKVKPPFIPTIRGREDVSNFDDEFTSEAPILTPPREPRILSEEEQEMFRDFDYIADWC
SMILES,IC50 [1],Ki [2],"viability at 24 h, 50 µM [3]",IC50 [4],IC50 [5],IC50 [6],Ki [7]
O=C1NCCc2[nH]c(-c3ccncc3)cc21,300 nM,150 nM,≥ 70%,,,,
CCn1c(-c2ccncc2)cc2c1CCNC2=O,210 nM,108 nM,≥ 70%,16 nM,2100 nM,1100 nM,8 nM
O=C1NCCc2c1cc(-c1ccncc1)n2CCO,440 nM,220 nM,,30 nM,11000 nM,,15 nM
Cn1c(-c2ccncc2)cc2c1CCNC2=O,4500 nM,2200 nM,,260 nM,,,130 nM
O=C1NCCc2[nH]c(-c3cccnc3)cc21,> 5000 nM,,,3200 nM,,,1600 nM
O=C1NCCc2c1cc(-c1ccncc1)n2Cc1ccccc1,3000 nM,1500 nM,,640 nM,,,320 nM
O=C1NC(c2ccccc2)Cc2[nH]c(-c3ccncc3)cc21 (stereo not drawn),520 nM,260 nM,,50 nM,,,25 nM
CCCN1CCc2c(cc(-c3ccncc3)n2CC)C1=O,> 5000 nM,,,2600 nM,,,1300 nM
CCn1c(-c2ccncc2)cc2c1CCN(C)C2=O,> 5000 nM,,,350 nM,,,170 nM
CCCn1c(-c2ccncc2)cc2c1CCNC2=O,120 nM,60 nM,≥ 70%,15 nM,2800 nM,,7 nM
c1cc(-c2cc3c([nH]2)CCNC3)ccn1,> 5000 nM,,,2200 nM,,,1100 nM
CC(C)n1c(-c2ccncc2)cc2c1CCNC2=O,1840 nM,920 nM,,140 nM,,,70 nM
O=C1CCCc2[nH]c(-c3ccncc3)cc21,1300 nM,650 nM,,60 nM,,,30 nM
